Experimental data reported in PMC3438169 (PLoS ONE, 2012).
*1 amine or outer side, *2 acyl side, *3 side chain or, on linkers, in order; H or OH if unused. Where a SMILES comes first, the peptide text is derived from it. [ ]: non-standard residue; d: D form. dAla(ψthiazole) = C[C@@H](N[*:1])c1nc(C(=O)[*:2])cs1; Trp(4-OMe) = COc1cccc2[nH]cc(C[C@H](N)C(=O)O)c12; dAbu = CC[C@@H](N)C(=O)O; Dha = C=C(N)C(=O)O; Sar = CNCC(=O)O

Columns and labels:
P. aeruginosa EF-G1 = target: T1, P. aeruginosa EF-G1 (Pseudomonas aeruginosa, UniProt Q9HWD2); assay: Co-crystal structure of EF-G1 with argyrin B; format: binding; settings: PDB 4FN5, 2.9 Å
T1 construct: P. aeroginosa fusA1 encoding full-length EF-G was PCR amplified from pET28a-PaEFG-Nhis; made in house; host or cells: E. coli BL21 (DE3)
T1 sequence (Q9HWD2 whole entry): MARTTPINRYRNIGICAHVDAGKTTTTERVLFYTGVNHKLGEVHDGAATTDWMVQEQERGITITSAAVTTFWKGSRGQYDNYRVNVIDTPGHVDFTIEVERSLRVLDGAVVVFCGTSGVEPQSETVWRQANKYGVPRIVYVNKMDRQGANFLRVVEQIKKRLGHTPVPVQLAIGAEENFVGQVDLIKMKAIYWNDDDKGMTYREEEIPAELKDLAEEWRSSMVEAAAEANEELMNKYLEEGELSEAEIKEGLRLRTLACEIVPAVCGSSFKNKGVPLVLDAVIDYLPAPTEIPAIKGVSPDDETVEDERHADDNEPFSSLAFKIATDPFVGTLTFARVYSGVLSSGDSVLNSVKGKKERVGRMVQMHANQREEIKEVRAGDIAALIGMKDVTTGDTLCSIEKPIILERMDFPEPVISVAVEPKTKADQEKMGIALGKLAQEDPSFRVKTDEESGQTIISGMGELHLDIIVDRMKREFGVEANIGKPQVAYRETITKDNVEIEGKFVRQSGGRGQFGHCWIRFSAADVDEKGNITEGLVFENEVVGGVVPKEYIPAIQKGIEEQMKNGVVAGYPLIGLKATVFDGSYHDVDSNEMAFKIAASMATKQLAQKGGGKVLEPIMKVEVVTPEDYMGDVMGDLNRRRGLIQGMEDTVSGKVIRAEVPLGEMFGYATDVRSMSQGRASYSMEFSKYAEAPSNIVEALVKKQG
Protocol: BL21 (DE3) cells harboring pET28a-PaEFG-Nhis were grown in Terrific Broth containing 100 µg/ml kanamycin. EF-G1 expression was induced using 1 mM IPTG. Cell pellets were resuspended and lysed using a microfluidizer, after which ultracentrifugation was performed. Purification was done using NiNTA resin followed by removal of the N-terminal Histidine tag with thrombin protease. The protein was further purified using a Mono Q column and was then concentrated and loaded onto a HiLoad Superdex 200 26/60 column, exchanging the protein into 25 mM Tris-HCl pH 7.5, 150 mM NaCl and 1 mM TCEP. […] Sitting drop vapor diffusion method was used for crystallization, with the crystallization well containing 100 mM Tris-HCl pH 7.5, 18% PEG 3350 and 200 mM sodium nitrate, and the drop containing a 1∶1 volume of protein and crystallization solution. After crystals formed they were subsequently cryoprotected using the crystallization solution with the addition of 20% glycerol, followed by flash freezing directly into liquid nitrogen.
The data were measured from a single crystal maintained at 100°K, and the reflections were indexed, integrated, and scaled using autoPROC [27], [28]. The spacegroup of the complex is C2 with 1 molecule in the asymmetric unit. The structure was determined with PHASER [29] using molecular replacement methods with a starting model of Thermus thermophilus EF-G (PDB Code 2BM0). […]

RKO = assay: Cell viability (CellTiter-Glo), RKO with siRNA or mEF-G1 variants; format: cell-based, human
Protocol: HCT116 (ATCC, CCL-247) and RKO (ATCC, CRL-2577) cell lines were maintained in a humidified incubator at 37°C and 5% CO2 in RPMI1640 supplemented with 10% FBS. Cell viability was determined using the CellTiter-Glo luminescent cell viability assay (Promega). […] Subsequently, 40 µl of CellTiter-Glo reagent was added to each well and luminescence recorded on an Envision plate reader (Perkin Elmer). Each treatment condition was tested in triplicate and compared to an equivalent volume of DMSO as control.
Non-targeting (NT) or GFM1 siRNA pools were obtained from Dharmacon (ON-TARGETplus SMART pool D-001810 and L-013685). HCT116 and RKO cells were reverse transfected in 6-well plates using RNAiMax (Invitrogen) and 25 nM siRNA. After 2 days, cells were harvested by trypsinization and re-plated into 6-well plates for western blot analysis or into 384-well plates for compound treatments and cell viability determination using CellTiter-Glo as described above.
The human GFM1 cDNA (encoding mEF-G1, Table 2) was mutagenized in pENTR221 (Invitrogen) using QuikChangeII XL site-directed mutagenesis (Stratagene). The following point mutations were introduced: C1355T (encoding S452L), C1481T (encoding S494F) and T2078A (encoding L693Q). The GFM1 cDNAs were then subcloned into the mammalian expression vector pLenti4/TO/V5 using LR clonase II (Invitrogen) and sequence-verified. The pLenti4 constructs were then co-transfected with a lentiviral plasmid mix (encoding LP1, LP2 and VSV-G) into 293T cells, and viral particles were harvested after 72 h and used to infect HCT116 and RKO cells. Stable cell lines were generated by selection with 400 µg/ml Zeocin and plated into 6-well plates for western blot analysis or into 384-well plates for compound treatments and cell viability determination using CellTiter-Glo as described above.

[1] = system: recombinant human mEF-G1 S494F; assay: Biacore binding, human mEF-G1 S494F; settings: 10, 20, 40 µM, HBS-P+ pH 7.4, 4% DMSO
Description: (§1) GFM1 encoding the active site of EF-G1 (residues 36–751) was PCR amplified from pDONR221 constructs using primers (GGGGACAAGTTTGTACAAAAAAGCAGGCTTAATGTCTTCATCAGGGGTGATT, GGGGACCACTTTGTACAAGAAAGCTGGGTATTAGTTCTTGGCTTTTCC). P. aeroginosa fusA1 encoding full-length EF-G was PCR amplified from pET28a-PaEFG-Nhis using primers (GGGGACCACTTTGTACAAGAAAGCTGGGTATTATCAACCTTGTTTTTT, GGGGACAAGTTTGTACAAAAAAGCAGGCTTAATGGCCCGTACTACACCC). Purified PCR products were cloned into the pDONR221 vector using Gateway cloning and BP Clonase II (Invitrogen), shuttled into an E.coli protein expression vector for N-terminal tagging (Avitag-His6 vector) using LR Clonase II (Invitrogen), and verified by sequencing. Avitag-His6-hEF-G1 and Avitag-His6-PaEF-G constructs were transformed into BL21-AI cells (Invitrogen) and isolated single colonies were used to inoculate 5 ml cultures which were grown overnight at 37°C with shaking. […]. Briefly, protein was captured on column using binding buffer (50 mM Tris; pH 7.5, 300 mM NaCl, 20 mM imidazole, 10% glycerol), washed extensively with washing buffer (50 mM Tris; pH 7.5, 500 mM NaCl, 30 mM imidazole, 10% glycerol), and then eluted with elution buffer (50 mM Tris; pH 7.5, 500 mM NaCl, 250 mM imidazole, 10% glycerol). […]

[2] = system: recombinant human mEF-G1 L693Q; assay: Biacore binding, human mEF-G1 L693Q; settings: 10, 20, 40 µM, HBS-P+ pH 7.4, 4% DMSO
Description: as §1

`C=C1NC(=O)CN(C)C(=O)CNC(=O)[C@H](Cc2c[nH]c3cccc(OC)c23)NC(=O)[C@H](Cc2c[nH]c3ccccc23)NC(=O)c2csc(n2)[C@@H](C)NC(=O)[C@@H](CC)NC1=O` [argyrin B] (cyclo([dAbu][dAla(ψthiazole)]W[Trp(4-OMe)]G[Sar][Dha])) was tested, and the “Binding site in co-crystal structure” value (P. aeruginosa EF-G1) was “bound at the interface of domains III and V”, the “Lowering of IC50 by knock down of mEF-G1” value (RKO; GFM1 siRNA, 7 days, CellTiter Glo) was about 3.3 fold and the “Sensitivity under hypoxic culture conditions (in words)” value (RKO; hypoxia, data not shown) was “became less sensitive”. For the same molecule, the “Decrease of susceptibility on expression of mEF-G1 L693Q” value (RKO; mEF-G1 L693Q, 7 days) was 7 fold, the “Sensitivity change on expression of mEF-G1 S452L and S494F (in words)” value (RKO; mEF-G1 S452L and S494F, 7 days) was “only marginal effects” and the “Sensitivity change on overexpression of mEF-G1 WT (in words)” value (RKO; mEF-G1 WT stable overexpression, 7 days) was “did not alter the argyrin B-sensitivity”. For the same molecule, the “Binding to human mEF-G1 (in words)” value [1] was “still bound” and the “Binding to human mEF-G1 (in words)” value [2] was “little binding detected”.
